Test results: ChEMBL document CHEMBL5728519, “Compounds of formulas (VII), (VIII), (IX), (XI), (XII), (XIII), and (XIV) as muscarinic receptor 4(M4) antagonists for treating neurological diseases” (2021)
pKi: −log10 of the molar value.

Experiments:
[1] = target: T1, Muscarinic acetylcholine receptor M4 (Homo sapiens, UniProt P08173); test: (§1) Binding Assay: Binding affinity (Ki) of compounds was measured by inhibition of radioligand binding to membranes from CHO cells expressing human M1, M2, M3, M4 and M5 receptors. Membranes were prepared by nitrogen cavitation and differential centrifugation as previously described (Hoare et al., Mol. Pharmacol. 2003 March; 63(3): 751-65). The radioligand employed was tritiated N-methylscopolamine, used at a concentration of 1.5 nM. A dose-response of twelve concentrations of compound was used, […]. The assay buffer was 50 mM HEPES, 100 mM NaCl, 5 mM MgCl2, 1 mM ethylenediaminetetraacetic acid, pH-adjusted to pH 7.4.
T1 sequence (P08173 whole entry): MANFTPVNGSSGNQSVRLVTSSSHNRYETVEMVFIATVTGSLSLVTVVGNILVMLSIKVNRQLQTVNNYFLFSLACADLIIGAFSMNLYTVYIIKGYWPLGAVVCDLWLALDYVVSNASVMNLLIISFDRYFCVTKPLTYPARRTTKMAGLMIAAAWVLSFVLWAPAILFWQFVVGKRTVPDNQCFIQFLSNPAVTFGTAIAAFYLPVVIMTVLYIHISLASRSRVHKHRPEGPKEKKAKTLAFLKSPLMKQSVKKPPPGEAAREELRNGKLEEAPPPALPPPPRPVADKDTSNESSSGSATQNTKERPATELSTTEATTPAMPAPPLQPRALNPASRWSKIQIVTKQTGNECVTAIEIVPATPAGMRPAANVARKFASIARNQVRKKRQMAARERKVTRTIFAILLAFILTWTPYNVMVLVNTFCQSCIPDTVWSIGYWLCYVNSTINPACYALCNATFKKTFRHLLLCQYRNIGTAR

[2] = target: T2, Muscarinic acetylcholine receptor M1 (Homo sapiens, UniProt P11229); test: as §1
T2 sequence (P11229 whole entry): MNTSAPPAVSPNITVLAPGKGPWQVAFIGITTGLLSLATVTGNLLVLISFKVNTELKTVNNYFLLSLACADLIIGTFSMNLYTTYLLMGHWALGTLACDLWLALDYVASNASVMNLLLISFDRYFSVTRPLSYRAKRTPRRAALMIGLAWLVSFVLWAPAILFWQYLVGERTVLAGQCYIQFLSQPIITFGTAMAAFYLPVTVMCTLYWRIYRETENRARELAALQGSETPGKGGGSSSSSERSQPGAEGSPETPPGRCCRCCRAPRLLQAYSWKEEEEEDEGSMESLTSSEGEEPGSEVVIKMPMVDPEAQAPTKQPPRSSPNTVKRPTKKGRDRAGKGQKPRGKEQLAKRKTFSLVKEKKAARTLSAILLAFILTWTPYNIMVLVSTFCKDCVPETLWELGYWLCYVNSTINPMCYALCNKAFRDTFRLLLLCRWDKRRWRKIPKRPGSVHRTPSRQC

pKi [1]	SMILES	pKi [2]
7.00 to 8.00	COc1ccc(N2CCN(C(=O)NCCC3CCN(Cc4ccccc4)CC3)[C@H](C)C2)cc1C#N	
	C[C@@H]1CN(c2ncc(C(F)(F)F)c(N)n2)CCN1C(=O)NCCC1CCN(Cc2ccccc2)CC1	7.00 to 8.00
	C[C@@H]1CN(c2ncc(C(F)(F)F)cn2)CCN1C(=O)NCCC1CCN(Cc2ccccc2)CC1	6.00 to 7.00
